The values below come from ChEMBL document CHEMBL4819002, “Design, synthesis, evaluation, and SAR of 4-phenylindoline derivatives, a novel class of small-molecule inhibitors of the programmed cell death-1/ programmed cell death-ligand 1 (PD-1/PD-L1) interaction” (Eur J Med Chem, 2021).

Calls of active or inactive are those of the source. No cut-off for these calls is given here.

For test [1], the target named is T1, Programmed cell death protein 1/Programmed cell death 1 ligand 1 (Homo sapiens, UniProt Q9NZQ7). As to the kind of experiment: Inhibition of PD1 (unknown origin)/PDL1 (unknown origin) protein-protein interaction by HTRF assay. The format is protein-complex assay.
T1 sequence (Q15116 whole entry): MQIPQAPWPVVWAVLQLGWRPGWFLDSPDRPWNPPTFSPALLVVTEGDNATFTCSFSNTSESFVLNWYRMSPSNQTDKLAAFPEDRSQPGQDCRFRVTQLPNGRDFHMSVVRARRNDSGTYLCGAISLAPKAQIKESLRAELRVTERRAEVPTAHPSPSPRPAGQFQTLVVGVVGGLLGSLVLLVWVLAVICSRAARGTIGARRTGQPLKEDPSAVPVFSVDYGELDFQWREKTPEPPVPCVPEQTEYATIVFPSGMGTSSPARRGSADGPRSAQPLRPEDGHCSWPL
T1 sequence (Q9NZQ7 whole entry): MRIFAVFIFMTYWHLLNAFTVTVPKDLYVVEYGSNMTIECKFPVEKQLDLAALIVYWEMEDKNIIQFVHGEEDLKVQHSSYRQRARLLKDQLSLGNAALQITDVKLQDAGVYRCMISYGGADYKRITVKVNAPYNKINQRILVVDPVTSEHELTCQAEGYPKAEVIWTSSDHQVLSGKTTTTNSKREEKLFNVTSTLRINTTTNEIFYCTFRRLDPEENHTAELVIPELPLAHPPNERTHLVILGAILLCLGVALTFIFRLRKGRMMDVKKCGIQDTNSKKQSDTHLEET
Test [2] in a line: Cytotoxicity against CHO cells expressing PD-Ll /TCR cocultured with human Jurkat cells expressing PD-1 measured after 24 hrs by Cell Titer-Glo based luminescent cell viability assay. The format is functional. Background: In ATP-based viability assays light output follows the ATP content of the culture.
The target of test [3] is T2, Programmed cell death protein 1/Programmed cell death 1 ligand 1 (Homo sapiens) (UniProt Q15116+Q9NZQ7). As to the kind of experiment: Inhibition of PD-1/PD-L1 interaction in CHO cells expressing PD-Ll/TCR cocultured with human Jurkat cells expressing PD-1 assessed as maximum relative luminescence intensity value at > 3.3 uM incubated for 6 hrs by luciferase reporter gene assay. The format is cell-based. The note with it: dose microM >3.3, time 6.0 hrs. On the technique in general: Reporter assays use an easily measured gene product as a stand-in for the process of interest.

Test [4] deals with T1, Programmed cell death protein 1/Programmed cell death 1 ligand 1. As to the kind of experiment: Inhibition of PD-1/PD-L1 interaction in CHO cells expressing PD-Ll/TCR cocultured with human Jurkat cells expressing PD-1 assessed as activation of effector Jurkat T cells incubated for 6 hrs by luciferase reporter gene assay. The format is cell-based.
The target of test [5] is T2, Programmed cell death protein 1/Programmed cell death 1 ligand 1 (Homo sapiens). As to the kind of experiment: Inhibition of PD-1/PD-L1 interaction in CHO cells expressing PD-Ll/TCR cocultured with human Jurkat cells expressing PD-1 assessed as maximum relative luminescence intensity value incubated for 6 hrs by luciferase reporter gene assay. The format is cell-based.

The target is the same in test [6]. As to the kind of experiment: Inhibition of PD-1/PD-L1 interaction in CHO cells expressing PD-Ll/TCR cocultured with human Jurkat cells expressing PD-1 assessed as maximum relative luminescence intensity value upto 10 uM incubated for 6 hrs by luciferase reporter gene assay. The format is cell-based. As to conditions: dose microM <=10, time 6.0 hrs.

As to `CC(=O)NCCNCc1cc(Cl)c(OCc2cccc(-c3cccc4c3CCN4CCCN3CCC3)c2C)cc1OCc1cccc(C#N)c1`, the IC50 in test [1] came to 98 nM. The same measure, in the same setting: for `CC(=O)NCCNCc1cc(Cl)c(OCc2cccc(-c3cccc4c3CCN4CCCN3CCC(O)CC3)c2C)cc1OCc1ccccc1` the value was 446 nM. Consider `CC(=O)NCCNCc1cc(Cl)c(OCc2cccc(-c3ccc4c(c3)OCCO4)c2C)cc1OCc1cccc(C#N)c1`, for which, in test [1], the IC50 amounted to 40 nM. For the same molecule, growth in test [2] was halved (GI50) at 6300 nM. Besides, the result in test [3] was inactive. Moreover, in test [4], the EC50 was above 3300 nM. In test [1], `Cc1c(COc2cc(OCc3cncc(C#N)c3)c(CNC(CO)CO)cc2Cl)cccc1-c1cccc2c1CCN2CCCN1CCC(O)CC1` showed a half-maximal inhibitory concentration (IC50) of 38 nM. On to `CC(=O)NCCNCc1cc(Cl)c(OCc2cccc(-c3cccc4c3CCN4CCCN3CCCCC3)c2C)cc1OCc1cccc(C#N)c1`, for which inhibition in test [1] was half-maximal at 197 nM (IC50).

As for `COC(=O)[C@H](CO)NCc1cc(Cl)c(OCc2cccc(-c3cccc4c3CCN4CCCN3CCC(O)CC3)c2C)cc1OCc1cncc(C#N)c1`, in test [1], it took 41 nM to reach half-maximal inhibition (IC50). On to `CC(=O)NCCNCc1cc(Cl)c(OCc2cccc(-c3cccc4c3CCN4CCCN3CCC(O)CC3)c2C)cc1OCC1CCCCC1`, for which the IC50 in test [1] came to 1130 nM. Same read-out and setting: as for `CC(=O)NCCNCc1cc(Cl)c(OCc2cccc(-c3cccc4c3CCN4)c2C)cc1OCc1cccc(C#N)c1`, the figure is 1360 nM; as for `CC(=O)NCCNCc1cc(Cl)c(OCc2cccc(-c3cccc4c3CCN4CCCN3CCC(F)CC3)c2C)cc1OCc1cccc(C#N)c1`, 878 nM; as for `CC(=O)NCCNCc1cc(Cl)c(OCc2cccc(-c3cccc4c3CCN4C)c2C)cc1OCc1cccc(C#N)c1`, 878 nM. The same measure, in the same setting: as for `CCCN1CCc2c(-c3cccc(COc4cc(OCc5cccc(C#N)c5)c(CNCCNC(C)=O)cc4Cl)c3C)cccc21`, the figure is 1730 nM; as for `CC(=O)NCCNCc1cc(Cl)c(OCc2cccc(-c3cccc4c3CCN4CCCN3CCC(O)C3)c2C)cc1OCc1cccc(C#N)c1` (stereo unspecified), 63 nM. Still for that read-out and setting: as for `COCCCN1CCc2c(-c3cccc(COc4cc(OCc5cccc(C#N)c5)c(CNCCNC(C)=O)cc4Cl)c3C)cccc21`, the figure is 905 nM.

Molecule `CC(=O)NCCNCc1cc(Cl)c(OCc2cccc(-c3cccc4c3CCN4CCCN3CCC(O)CC3)c2C)cc1OCc1cncc(C#N)c1` gave an IC50 in test [1] of 17 nM. Further, the Activity entry in test [5] was “Dose-Dependent Effect”. In test [2], this molecule showed a GI50 of 16900 nM. Moreover, the RLU in test [6] was found to be 1910. Also, the EC50 in test [4] was determined as 430 nM. `CC(=O)NCCNCc1cc(Cl)c(OCc2cccc(-c3cccc4c3CCN4CCCN3CCOCC3)c2C)cc1OCc1cccc(C#N)c1` had a half-inhibitory concentration (IC50) in test [1] of 185 nM.

`CC(=O)NCCNCc1cc(Cl)c(OCc2cccc(-c3cccc4c3CCN4CCCN3CCCC3)c2C)cc1OCc1cccc(C#N)c1` had an IC50 in test [1] of 77 nM.

In turn, `CC(=O)NCCNCc1cc(Cl)c(OCc2cccc(-c3cccc4c3CCN4CCCN3CCC(O)CC3)c2C)cc1OCc1cccc(C#N)c1` yielded an IC50 in test [1] of 58 nM. Still for that read-out and setting: as for `Cc1c(COc2cc(OCc3cncc(C#N)c3)c(CNCCO)cc2Cl)cccc1-c1cccc2c1CCN2CCCN1CCC(O)CC1`, the figure is 31 nM; as for `CCN1CCc2c(-c3cccc(COc4cc(OCc5cccc(C#N)c5)c(CNCCNC(C)=O)cc4Cl)c3C)cccc21`, 743 nM. Still for that read-out and setting: for `CC(=O)NCCNCc1cc(Cl)c(OCc2cccc(-c3cccc4c3CCN4CCN3CCC(O)CC3)c2C)cc1OCc1cccc(C#N)c1` the value was 322 nM; for `CC(=O)NCCNCc1cc(Cl)c(OCc2cccc(-c3cccc4c3CCN4CCCn3cccc3)c2C)cc1OCc1cccc(C#N)c1`, 2470 nM.

With `CC(=O)NCCNCc1cc(Cl)c(OCc2cccc(-c3cccc4c3CCN4CCCN3CCC(F)C3)c2C)cc1OCc1cccc(C#N)c1` (stereo unspecified), in test [1], half-maximal inhibition (IC50) was put at 202 nM.

`CC(=O)NCCNCc1cc(Cl)c(OCc2cccc(-c3cccc4c3CCN4CCCN3CCC(O)CC3)c2C)cc1OCc1cccnc1`: the IC50 in test [1] is 79 nM.

For `Cc1c(COc2cc(OCc3cncc(C#N)c3)c(CN[C@@H](CO)C(=O)O)cc2Cl)cccc1-c1cccc2c1CCN2CCCN1CCC(O)CC1`, in test [1], the midpoint of inhibition, the IC50, lay at 12 nM. For the same molecule, the Activity result in test [5] is “Dose-Dependent Effect”. Moreover, the GI50 in test [2] was above 20000 nM. In test [6], the RLU turned out to be 1710. The EC50 in test [4] amounted to 2900 nM. In test [1], `CCN(CC)CCCN1CCc2c(-c3cccc(COc4cc(OCc5cccc(C#N)c5)c(CNCCNC(C)=O)cc4Cl)c3C)cccc21` showed an IC50 of 114 nM.

Usually IC50 stands for the concentration at which inhibition is half-maximal. Low readings indicate greater potency, high ones weaker potency. By GI50 is commonly meant the concentration that inhibits growth by half. In general, EC50 refers to the concentration giving half of the maximal effect.
